Assay in all cases: NCI tumour cell line growth inhibition, 48 h
In test [1] the test system is P388 leukemia.
Test [2] concerns RXF-631 renal.
Test [3] concerns SR leukemia.
For test [4], the system named is T-47D breast.
The subject of test [5] is DU-145 prostate.
Test [6] has as its system MDA-MB-231 breast.
Test [7] relates to BT-549 breast.
Test [8] concerns MDA-N.
Test [9] concerns HS 578T breast.
In test [10] the test system is MDA-MB-435.
Test [11] concerns PC-3 prostate.

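All cell lines were grown in 96-well plates and treated with compound for 48 hours. At the TGI there is no net growth.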

In [1], `O=C(O)CNS(=O)(=O)c1ccc(NC(=O)Nc2ccccc2)cc1` yielded a TGI greater than 100 µM.
Consider `Cc1cc(N=Nc2ccc(N=Nc3c(O)c(S(=O)(=O)O)cc4cc(S(=O)(=O)O)ccc34)cc2C)ccc1N=Nc1ccc2cc(S(=O)(=O)O)cc(S(=O)(=O)O)c2c1`, for which the TGI in test [1] is greater than 73.1 µM.
`CCNCCCCNCC`: the TGI in [1] is greater than 3750 µM.
With `COC(=O)NN1C(=O)C(=P(c2ccccc2)(c2ccccc2)c2ccccc2)C(C(=O)OC)=C1C`, in [2], the TGI is greater than 100 µM.
The compound `CC1=C2C(O)C(C(C)C(=O)NC(C)C)CCC2(C)C=CC1=O` (stereo unspecified) came in with a TGI in test [1] greater than 100 µM.
The compound `CC(C)(O)[C@H](CCO)O[Si](c1ccccc1)(c1ccccc1)C(C)(C)C` displayed a TGI in test [3] of 26.4 µM.
Turning to `CC1OC(OC2CC(O)(C(=O)CO)Cc3c(O)c4c(c(O)c32)C(=O)c2ccccc2C4=O)CC(N)C1O` (stereo unspecified), the TGI in test [4] is 0.134 µM; in [5] it was 0.0836 µM; in [6], 7.4 µM; in test [7], 4.03 µM; in test [8] it was 0.613 µM; in [2], 0.213 µM. Moreover, the values for the TGI in test [9], in [10] and in test [11] were 0.113 µM, 1.49 µM and 0.954 µM, respectively.
Turning to `Cn1c(=O)c2nc(N3CCCCC3)cnc2n(C)c1=O`, the TGI in test [3] is greater than 100 µM.

These data come from PubChem BioAssay (NCI).
